Assay results as given in patent publication EP1724268A1, “COMPOUND HAVING TGF-BETA INHIBITORY ACTIVITY AND PHARMACEUTICAL COMPOSITION CONTAINING SAME” (KIRIN BEER KABUSHIKI KAISHA, priority 2004, dated 2005).
Read-outs that look alike come from different tables or passages of the source.

Test system: TGFβ signal
Assay: TGFβ signal inhibitory activity, (SBE)4-Luc reporter in A549 cells (Test Examples 1A and 1B)
Type: cell-based, human
Details: Homo sapiens, A549, read-out: TGFβ inhibition rate, %
In short: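 Stable A549 line carrying (SBE)4-Luc Smad3-binding reporter treated with compound plus TGFβ-1 (2 ng/ml) for 4 hr; luciferase read by chemiluminescence. Percent inhibition relative to TGFβ-only and untreated cells, tested at 3 µM and 10 µM, some also at 1 µM.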

[1] = 3 µM, compounds of Reference Examples (Test Example 1B)
[2] = 10 µM, compounds of Reference Examples (Test Example 1B)
[3] = test compound 3 µM, TGFβ-1 2 ng/ml, 4 hr, Table 1A
[4] = test compound 10 µM, TGFβ-1 2 ng/ml, 4 hr, Table 1A
[5] = test compound 3 µM, Reference Examples, Table 1B
[6] = test compound 10 µM, Reference Examples, Table 1B

Structure (SMILES): COc1cc2c(Oc3cc4ccccc4nc3C)ccnc2cc1OCCCl [Compound r353]
- inhibition at 3 µM [1]: 54%
- inhibition at 10 µM [2]: 86%

Structure (SMILES): COc1cc2c(Oc3cc4ccccc4nc3C)ccnc2cc1OCC(CO)CO [Compound r387]
- inhibition at 3 µM [1]: 99%
- inhibition at 10 µM [2]: 100%

Structure (SMILES): COc1cc2c(Oc3cc4ccccc4nc3C(C)=O)ccnc2cc1OCCCO [Compound r456]
- inhibition at 3 µM [1]: 99%
- inhibition at 10 µM [2]: 100%

Structure (SMILES): COc1cc2c(Oc3cc(C)c(C)nc3-c3cccc(C)n3)ccnc2cc1OCCO [Compound r450]
- inhibition at 3 µM [1]: 94%
- inhibition at 10 µM [2]: 100%

Structure (SMILES): COc1cc2c(Oc3cc4ccccc4nc3C)ccnc2cc1OCCCn1ccnc1 [Compound r381]
- inhibition at 3 µM [1]: 100%
- inhibition at 10 µM [2]: 100%

Structure (SMILES): COc1cc2nccc(Oc3ccc(C)nc3-c3ccccc3O)c2cc1OC [Compound r226]
- inhibition at 3 µM [1]: 60%
- inhibition at 10 µM [2]: 96%

Structure (SMILES): COc1cc2nccc(Oc3cc4cccnc4nc3-c3ccccc3)c2cc1F [Compound 59, 3-(6-Fluoro-7-methoxy-quinolin-4-yloxy)-2-phenyl-[1,8]naphthyridine]
- inhibition at 1 µM (test compound 1 µM, TGFβ-1 2 ng/ml, 4 hr, Table 1A): 93%

Structure (SMILES): COc1cc2nccc(Oc3cc4cccnc4nc3-c3ccccc3)c2cc1Br [Compound 132, 3-(6-Bromo-7-methoxy-quinolin-4-yloxy)-2-phenyl-[1,8]naphthyridine]
- inhibition at 3 µM [3]: 98%
- inhibition at 10 µM [4]: 100%

Structure (SMILES): COc1cc2c(Oc3cc(C)c(C)nc3-c3nc(C)c(C)s3)ccnc2cc1OCC(O)CO (centres unmarked) [Compound r464]
- inhibition at 3 µM [1]: 97%
- inhibition at 10 µM [2]: 100%

Structure (SMILES): COc1cc2nccc(Oc3cc4ccncc4cc3-c3cccnc3)c2cc1OC [r304]
- inhibition at 3 µM [1]: 26%
- inhibition at 10 µM [2]: 64%

Structure (SMILES): COc1cc2c(Oc3cc4cccnc4nc3C)ccnc2cc1OCC(CO)CO [Compound r404]
- inhibition at 3 µM [1]: 29%
- inhibition at 10 µM [2]: 72%

Structure (SMILES): Cc1cc(Oc2ccnc3cc(C(N)=O)ccc23)c(-c2ccccn2)nc1C [Compound 126, 4-(5,6-Dimethyl-[2,2']bipyridinyl-3-yloxy)-quinoline-7-carboxylic acid amide]
- inhibition at 3 µM [3]: 93%
- inhibition at 10 µM [4]: 100%

Structure (SMILES): COc1cc2c(Oc3cc4cccnc4nc3C)ccnc2cc1OCCCCO [Compound r405]
- inhibition at 3 µM [1]: 92%
- inhibition at 10 µM [2]: 100%

Structure (SMILES): COc1cc2nccc(Oc3ccc(C)nc3-c3ccc(C(C)=O)cc3)c2cc1OC [Compound r246]
- inhibition at 3 µM [1]: 64%
- inhibition at 10 µM [2]: 93%

Structure (SMILES): COc1cc2c(Oc3cc(C)c(C)nc3-c3cccnc3)ccnc2cc1OCc1ccccc1 [Compound r344]
- inhibition at 3 µM [1]: 92%

Structure (SMILES): COc1cc2ncnc(Oc3ccc(C)cc3C(=O)c3ccccc3)c2cc1OC [r161]
- inhibition at 3 µM [5]: 25%
- inhibition at 10 µM [6]: 83%

Structure (SMILES): CCc1nc2ncccc2cc1Oc1ccnc2cc(OC)c(F)cc12 [Compound 161, 2-Ethyl-3-(6-fluoro-7-methoxy-qulnolin-4-yloxy)-[1,8]naphthyridine]
- inhibition at 3 µM [3]: 68%
- inhibition at 10 µM [4]: 95%

Structure (SMILES): COc1cc2nccc(Oc3cc4ccccc4cc3C(=O)Nc3cccc4ccccc34)c2cc1OC [r114]
- inhibition at 3 µM [5]: 0%
- inhibition at 10 µM [6]: 96%

Structure (SMILES): COc1cc2nccc(Oc3cc4cnccc4nc3-c3ccccc3)c2cc1OC [Compound 93, 3-(6,7-Dimethoxy-quinolin-4-yloxy)-2-phenyl-[1,6]naphthyridine]
- inhibition at 3 µM [3]: 97%
- inhibition at 10 µM [4]: 100%

Structure (SMILES): COc1cc2c(Oc3cc4ccccc4nc3C(C)=O)ccnc2cc1OCC(CO)CO [Compound r396]
- inhibition at 3 µM [1]: 96%

Structure (SMILES): CCc1ccc(Oc2ccnc3ccc(O)cc23)c(-c2ncccn2)n1 [Compound 191, 4-(6-Ethyl-2-pyrimidin-2-yl-pyridin-3-yloxy)-quinolin-6-ol]
- inhibition at 3 µM [3]: 99%
- inhibition at 10 µM [4]: 100%

Structure (SMILES): COc1cc2nccc(Oc3ccc(C)nc3-c3cc(C)n(C)n3)c2cc1OC [Compound r256, 4-[2-(1,5-Dimethyl-1H-pyrazol-3-yl)-6-methyl-pyridin-3-yloxy]-6,7-dimethoxy-quinoline]
- inhibition at 3 µM [1]: 98%
- inhibition at 10 µM [2]: 100%

Structure (SMILES): Cc1cc(Oc2ccnc3ccc(-c4ccc(O)cc4)cc23)c(-c2ccccn2)nc1C [Compound 12, 4-[4-(5,6-Dimethyl-[2,2']bipyridin-3-yloxy)-quinolin-6-yl]-phenol]
- inhibition at 3 µM [3]: 100%
- inhibition at 10 µM [4]: 100%

Structure (SMILES): COc1cc2nccc(Oc3ccc(C)nc3C(=O)c3ccccc3)c2cc1OC [Compound r220]
- inhibition at 3 µM [1]: 99%
- inhibition at 10 µM [2]: 100%

Structure (SMILES): CCOC(=O)c1cc(Cl)ccc1Oc1ccnc2cc(OC)c(OC)cc12 [Compound r84]
- inhibition at 3 µM [5]: 84%
- inhibition at 10 µM [6]: 100%

Structure (SMILES): COc1cc2nccc(Oc3c(C(C)=O)ccc4ccccc34)c2cc1OC [Compound r41]
- inhibition at 3 µM [5]: 57%
- inhibition at 10 µM [6]: 97%

Structure (SMILES): COc1cc2nccc(Oc3ccc(C)cc3C(=O)C(C)(C)C)c2cc1OC [Compound r54]
- inhibition at 3 µM [5]: 13%
- inhibition at 10 µM [6]: 73%

Structure (SMILES): COc1cc2c(Oc3cc4ccccc4nc3C)ccnc2cc1OCCCN1C(=O)c2ccccc2C1=O [Compound r380]
- inhibition at 3 µM [1]: 50%
- inhibition at 10 µM [2]: 89%

Structure (SMILES): COc1cc2nccc(Oc3cc4cccnc4nc3-c3ccccc3)c2cc1OCCO [Compound 125, 2-[7-Methoxy-4-(2-phenyl-[1,8]naphthyridin-3-yloxy)-quinolin-6-yloxy]-ethanol]
- inhibition at 3 µM [3]: 99%
- inhibition at 10 µM [4]: 100%

Structure (SMILES): Cc1cc(Oc2ccnc3cc(C(F)(F)F)ccc23)c(-c2ccccn2)nc1C [Compound 15, 5,6-Dimethyl-3-(7-trifluoromethyl-quinolin-4-yloxy)-[2,2']bipyridine]
- inhibition at 3 µM [3]: 99%
- inhibition at 10 µM [4]: 100%

Structure (SMILES): COc1cc2c(Oc3cc(C)c(C)nc3-c3ccc(C)cn3)ccnc2cc1OCCNCCO [r469]
- inhibition at 3 µM [1]: 100%

Structure (SMILES): COc1cc2c(Oc3cc4cnccc4nc3C)ccnc2cc1OCC(CO)CO [r409]
- inhibition at 3 µM [1]: 41%
- inhibition at 10 µM [2]: 88%

Structure (SMILES): Cc1cc(Oc2ccnc3cc(-c4ccncc4)ccc23)c(-c2ccccn2)nc1C [Compound 19, 5,6-Dimethyl-3-(7-pyridin-4-yl-quinolin-4-yloxy)-[2,2']bipyridine]
- inhibition at 3 µM [3]: 100%
- inhibition at 10 µM [4]: 100%

Structure (SMILES): Cc1csc2ncnc(Oc3cc4cccnc4nc3-c3ccccc3)c12 [Compound 77, 3-(5-Methyl-thieno[2,3-d]pyrimidin-4-yloxy)-2-phenyl-[1,8]naphthyridine]
- inhibition at 3 µM [3]: 93%
- inhibition at 10 µM [4]: 99%

Structure (SMILES): CCN(C)CCOc1ccc2nccc(Oc3ccc(C)nc3-c3ncccn3)c2c1 [Compound 223, ethyl-methyl-{2-[4-(6-methyl-2-pyrimidin-2-yl-pyridin-3-yloxy)-quinolin-6-yloxy]-ethyl}-amine]
- inhibition at 3 µM [3]: 52%
- inhibition at 10 µM [4]: 90%

Structure (SMILES): CCCc1ccc(Oc2ccnc3cc(OC)c(OC)cc23)c(C(C)=O)c1 [r173]
- inhibition at 3 µM [1]: 83%
- inhibition at 10 µM [2]: 100%

Structure (SMILES): COc1cc2c(Oc3ccc(C)cc3C(=O)c3ccccc3)ccnc2cc1OCCCCn1ccnc1 [Compound r150]
- inhibition at 3 µM [5]: 97%
- inhibition at 10 µM [6]: 100%

Structure (SMILES): COc1cc2nccc(Oc3ccc(C)cc3[N+](=O)[O-])c2cc1OC [r13]
- inhibition at 3 µM [5]: 28%
- inhibition at 10 µM [6]: 78%

Structure (SMILES): Cc1cc(Oc2ncnc3scc(C)c23)c(-c2ccccn2)nc1C [Compound 34, 5,6-Dimethyl-3-(5-methyl-thieno[2,3-d]pyrimidin-4-yloxy)-[2,2'] bipyridine]
- inhibition at 3 µM [3]: 94%
- inhibition at 10 µM [4]: 100%

Structure (SMILES): COc1cc2nccc(Oc3cc4ccccc4nc3-c3cc(C)c(Cl)s3)c2cc1OC [r290]
- inhibition at 3 µM [1]: 18%
- inhibition at 10 µM [2]: 57%

Structure (SMILES): CCOc1cccc(-c2nc(C)ccc2Oc2ccnc3cc(OC)c(OC)cc23)c1 [Compound r239]
- inhibition at 3 µM [1]: 83%
- inhibition at 10 µM [2]: 100%

Structure (SMILES): CCOC(=O)c1cc2cc(Oc3ccnc4cc(OC)c(OC)cc34)ccc2[nH]1 [Compound r22]
- inhibition at 3 µM [5]: 11%
- inhibition at 10 µM [6]: 81%

Structure (SMILES): COc1ccc(Oc2ccnc3cc(OC(=O)N4CCOCC4)c(OC)cc23)c(C(C)=O)c1 [Compound r118, 4-(2-Acetyl-4-methoxyphenoxy)-6-methoxy-7-quinolyl 4-morpholine carboxylate]
- inhibition at 3 µM [5]: 97%
- inhibition at 10 µM [6]: 100%

Structure (SMILES): COc1cc2nccc(Oc3ccc(C)nc3-c3ccccc3C(C)=O)c2cc1OC [Compound r225]
- inhibition at 3 µM [1]: 39%
- inhibition at 10 µM [2]: 78%

Structure (SMILES): COc1cc(Oc2ccnc3cc(OC)c(OC)cc23)c(C(C)=O)cc1OC [Compound r39]
- inhibition at 3 µM [5]: 0%
- inhibition at 10 µM [6]: 91%

Structure (SMILES): COc1cc2nccc(Oc3cccnc3Br)c2cc1OC [r203]
- inhibition at 3 µM [1]: 19%
- inhibition at 10 µM [2]: 52%

Structure (SMILES): COc1cc2nccc(Oc3cc4cccnc4cc3C)c2cc1OC [r296]
- inhibition at 3 µM [1]: 86%
- inhibition at 10 µM [2]: 100%

Structure (SMILES): COc1cc2c(Oc3ccc(C)cc3C(=O)c3ccccc3)ccnc2cc1OCC(O)CN1CCN(C)CC1 (centres unmarked) [Compound r158]
- inhibition at 3 µM [5]: 100%
- inhibition at 10 µM [6]: 100%

Structure (SMILES): COc1cc2nccc(Oc3cc4cccnc4nc3-c3cccnc3)c2cc1OC [Compound 88, 3-(6,7-Dimethoxy-quinolin-4-yloxy)-2-pyridin-3-yl-[1,8]naphthyridine]
- inhibition at 3 µM [3]: 90%
- inhibition at 10 µM [4]: 100%

Structure (SMILES): Cc1ccc(Oc2ccnc3ccc(OCCCN(CCO)c4ccccc4)cc23)c(-c2ncccn2)n1 [Compound 219, 2-({3-[4-(6-Methyl-2-pyrimidin-2-yl-pyridin-3-yloxy)-quinolin-6-yloxy]-propyl}-phenylamino)-ethanol]
- inhibition at 3 µM [3]: 96%
- inhibition at 10 µM [4]: 100%

Structure (SMILES): COc1cc2c(Oc3cc4cccnc4nc3C)ccnc2cc1OCCN1CCCCC1 [r440]
- inhibition at 3 µM [1]: 100%
- inhibition at 10 µM [2]: 100%
